One may read the melting point as the temperature, or range, at which the solid turns liquid. Turning to `COc1c([N+](=O)[O-])cc(Br)c2c1C(=CC#N)CC2`, the melting point was 156 to 158 °C. `Cc1c(OCC(F)(F)F)ccnc1CS(=O)c1nc2ccccc2n1NCC(C)C` (stereo unspecified): the melting point is 129 to 131 °C. Next, `O=C(O)c1[nH]c2cc(Cl)cc(Cl)c2c1C=C1CCNN(c2ccccc2)C1=O`: over 250 °C.

For `C[C@H](NC(=O)CC(Br)C(=O)c1ccc(Br)cc1)C(=O)O` (stereo partly specified), the melting point was in the range of 110 to 113 °C.

`Cc1ccc(NC(=O)c2ccc(C(=O)Nc3ccccc3N)s2)cc1Nc1nc(-c2cccnc2)cs1` displayed a melting point of 242 °C.

On to `CC(=O)O[C@H]1[C@H](NC(C)=NC#N)c2cc(C#N)ccc2OC1(C)C` (relative stereo), for which the melting point fell in the range of 236 to 238 °C. To `C=Cn1nc(-c2c(-c3ccccc3)nn3ccccc23)ccc1=O` belongs 188 °C. To `O=C(O)C(=NO)C(c1ccc(OCc2ccc3ccc(Cl)cc3n2)cc1)c1ccc(OCc2ccc3ccc(Cl)cc3n2)cc1` belongs 201 to 202 °C; to `CC(Cc1ccc(F)c(F)c1)C(=O)O` (stereo unspecified), 55 to 56 °C; to `Cn1c(-c2ccccc2[N+](=O)[O-])nc2ccccc21`, 132 to 134 °C. In turn, `Cc1ncnc(Nc2ccc(C(=O)CCC3CCN(Cc4ccccc4)CC3)cc2)c1C` returned a melting point of 168 to 170 °C. In the case of `COC(=O)c1ccc2c(ccn2Cc2cccc(NC(=O)OC3CCCC3)c2)c1`, the melting point lay within 131 to 133 °C.

On to `CSc1ccc(/C=C/c2ccc(C(=O)O)cn2)cc1`, for which the melting point was 250 to 253 °C. Next, `O=C(c1cccnc1)c1cc(-c2ccccc2)c(N2CCOCC2)s1`: 180 °C; `O=C(c1ccc(NC(=O)C(O)(C(F)(F)F)C(F)(F)F)cc1)c1ccccn1`: 197 to 200 °C; `CCc1nc2c(N)nc3ccccc3c2n1CC(C)C`: 233 to 234 °C.

`COC(=O)c1cccc(-c2nc(C(Cl)(Cl)Cl)nc(C(Cl)(Cl)Cl)n2)c1` yielded a melting point of 115 to 117 °C.

In turn, `CCOC1=CC(=O)N([C@@H]2c3cc(C#N)ccc3OC(C)(C)[C@H]2O)C1` showed a melting point of 210 °C. To `COc1cc(=O)n(-c2cccc(C(F)(F)F)c2)nc1-c1ccnn1-c1ccccc1` belongs 165 to 167 °C. `COC(=O)c1ccc(OC)c(NC(=O)C[C@H]2O[C@H](c3cccc(OC)c3OC)c3cc(Cl)ccc3N(CC(C)(C)COC(C)=O)C2=O)c1`: the melting point was 138 to 140 °C. For `CN(C(=O)OC[C@@]1(C)Cn2cc([N+](=O)[O-])nc2O1)c1ccc(Cl)cc1`, the melting point lay within 131 to 133 °C.

Compound `CN1CCC(c2nn(-c3ccccc3C#N)c3ccccc23)CC1` displayed a melting point of 117 to 119 °C. For `O=[N+]([O-])c1cc2c(Nc3ccc(F)c(Cl)c3)ncnc2cc1OC1CCC1`, the melting point came to 235 °C. To `CCCN1C(=O)N2C[C@@H](Cc3ccccc3)N=C2c2c1nc(SC)n2COC` belongs 110 to 112 °C; to `Cc1cccc(-c2n[nH]cc2-c2ccc(F)c(-c3csc(C(C)(C)O)n3)c2)n1`, 78 to 80 °C. To `NC(Cc1nc2ccccc2nc1CP(=O)(O)O)C(=O)O` (stereo unspecified) belongs 174 °C; to `Nc1ncc(-c2cc(Cl)c([N+](=O)[O-])c(Cl)c2Cl)c(N)n1`, 293 to 295 °C; to `COC(=O)NNC(=S)Cc1cc(OC)c(OC)c(OC)c1`, 134 °C. In turn, `COc1c2c(c(OC)c(OC)c1OC)CCC(CCOc1ccccn1)CC2` had a melting point of 132 to 135 °C. Next, `CCOC(=O)CCc1ccc(NC(C)=O)cc1`: 52 to 53 °C; `Cc1ncccc1-c1ccc(OC2SCC(O)C(O)C2O)cn1` (stereo unspecified): 167 to 168 °C. `COc1cc(-c2cccc([N+](=O)[O-])c2)ccc1N` gave a melting point of 167 to 168 °C. In turn, `CC(C)CCOC(=O)c1cc2c([nH]c3ccccc32)c(-c2ccc3c(n2)C(=O)C(NC(=O)CCl)=CC3=O)n1` yielded a melting point of 280 to 284 °C. To `Cc1ccc(C(=O)C2CCN(CCc3c[nH]c4ccccc34)CC2)cc1C` belongs 172 to 173 °C; to `COc1cc(C(C)C)c2c(c1)S(=O)(=O)N(COC(=O)c1c(C)c3cc(Cl)ccc3n1C)C2=O`, 183 to 184 °C. To `O=C(Nc1ccc(-n2nc(C(F)(F)F)cc2-c2cccnc2)cc1)c1ccccc1F` belongs 138 to 140 °C; to `CCCn1ncc2c(=O)[nH]c(-c3ccccc3OCC)nc21`, 154 to 155 °C; to `O=C(NCc1ccc(Cl)cc1)c1cnc2cc(C(F)(F)F)c(SCc3ccccc3)cc2c1O`, 185 to 188 °C. In turn, `O=[N+]([O-])c1oc2ccc(Cc3nnn[nH]3)cc2c1-c1ccccc1` came in with a melting point of 245 to 247 °C. Next, `CC(=O)Nc1ccc(S(F)(F)(F)(F)F)cc1[N+](=O)[O-]`: 135 to 138 °C. Turning to `CC(=O)c1ccc(SC(=O)N(C)C)cc1OCC(=O)O`, the melting point lay within 173 to 174 °C. Take `CC(=O)c1c(C)[nH]c(-c2ccncc2)c1C`: the melting point was in the range of 205 to 207 °C. Next, `COc1cc(C(F)(F)F)cc(OC)c1-c1ccc(C[C@H](NC(=O)c2c(Cl)cccc2Cl)C(=O)O)cc1`: 231 to 232 °C; `O=C1NC(Cc2ccccc2)C(=O)N/C1=C\c1ccc(O)cn1` (stereo unspecified): 251 to 252 °C. The compound `CC(/C=C/c1cscc1-c1ccc2c(c1)C(C)(C)CCC2(C)C)=C\C(=O)O` registered a melting point of 192 to 193 °C.

For the compound `CCOC(=O)C=Cc1ccncc1`, the melting point lay in the range of 64 to 66 °C.

For the compound `CN1CCN(c2ccc(N/C=C3\C(=O)NC(=O)c4ccc(C#Cc5ccccc5)cc43)cc2)CC1`, the melting point lay within 169 to 170 °C. Next, `CCOC(=O)C(C)(C)NC(=O)c1ccc(S(=O)(=O)n2c(=O)n(C3CCCCC3)c3cc(OCC)ccc32)c(OC)c1`: 202 °C. To `CN(C)c1cc(CCl)nc(N)n1` belongs 127 to 129 °C; to `CCCCCc1cnc(-c2ccc(-c3ccc(Br)cc3)cc2)nc1`, 137 °C; to `O=C(O)CCCCCc1cccc2cncn12`, 144 to 147 °C.

The compound `COc1ccc(C(=O)c2c(-c3ccc(O)cc3)sc3cc(O)ccc23)cc1` returned a melting point of 138 to 140 °C. To `C=CCNc1nc(-c2ccccc2)ncc1C(=O)OCC` belongs 49 to 54 °C. To `O=C(O)C1(c2ccccc2)Cc2ccccc2C1` belongs 193 to 195 °C; to `COc1cccc(CC(=O)O)c1OCCCc1cn(-c2ncc(C(F)(F)F)cn2)nc1C(C)C`, 131 to 132 °C. To `Cc1ccc(S(=O)c2nc(Cl)c([N+](=O)[O-])s2)cc1` (stereo unspecified) belongs 112 °C; to `CCOCc1nc2c(N)nc(C)c(C)c2n1CCOCCCc1cccnc1`, 78 to 78.5 °C; to `O=C(O)C1CSC(c2ccncc2)N1` (stereo unspecified), 171 to 173 °C. Compound `CCCc1cn(CC(=O)O)nc1OCCCc1cn(-c2ccc(C(F)(F)F)cn2)nc1OCC` came in with a melting point of 134 to 135 °C. Next, `COC(=O)c1cn(Cc2ccccc2)c2ccc(C3CCCCC3)cc2c1=O`: 211 to 213 °C; `COc1ccc2cc(C3CCN(C[C@H](O)COc4cccc5oc(C6=NC(C)(C)CO6)cc45)CC3)ccc2c1`: 133 to 134 °C; `Cc1ccc(CCN(C)CCCCCC2Cc3cc(O)ccc3C3C(F)CC4(C)C(O)CCC4C23)cc1` (stereo unspecified): 142 to 143 °C.

As to `O=C(CCl)c1ccc(OCc2nnn[nH]2)cc1`, the melting point lay within 194 to 196 °C. `CCOC(=O)c1cnn2c1c(O)nc1ccccc12` displayed a melting point of 249 to 251 °C.

As to `COc1cc(C)nc(-n2nc(C)n(NS(=O)(=O)c3ccccc3OC(F)(F)F)c2=O)n1`, the melting point was determined as 248 °C. Next, `Oc1ccccc1-c1nc(-c2ccccc2O)n(Cc2ccncc2)n1`: 197 to 199 °C; `Cn1cncc1C(O)(c1ccc(Cl)cc1)c1ccc2c(c1)C(c1cccc(Cl)c1)Nc1nnnn1-2` (stereo unspecified): 212 °C; `COc1ccc(-n2nnc(-c3ccc(Cl)cc3Cl)c2N)cc1`: 155 to 164 °C.

`Cn1cc(C(O)(c2ccc3c(cnn3C(=O)c3ccccc3)c2)C(F)(F)F)c2ccccc21` (stereo unspecified) displayed a melting point of 102 to 103 °C. In turn, `CCc1ccc2ccc(N)nc2n1` yielded a melting point of 170 to 172 °C. To `CCOP(=O)(Cc1c(C)cc(O)cc1C1CCCCC1)OCC` belongs 73 °C; to `CC(=O)c1cn(S(=O)(=O)c2ccccc2)c2nccc(OCc3ccccc3)c12`, 164 to 166 °C. To `NC1=Nc2cccc3c(=O)[nH]nc(c23)N1` belongs over 300 °C. Next, `Cc1ccccc1CNc1ncnc2c1ncn2C1OC(CO)C(O)C1O` (stereo unspecified): 162 to 164 °C.

Regarding `O=[N+]([O-])c1ccc(Oc2ccc(C(F)(F)F)cc2Cl)nc1Cl`, the melting point was in the range of 53 to 59 °C. `O=C(Nc1ccc([N+](=O)[O-])c(C(F)(F)F)c1)c1ccccc1SSc1ccccc1C(=O)Nc1ccc([N+](=O)[O-])c(C(F)(F)F)c1` showed a melting point of 167 to 169 °C. Turning to `Cc1cc2cc(CN3CCCC3)cnc2cc1NC(=O)c1ccc(-c2ccc(Cl)cc2)cc1`, the melting point lay in the range of 214 to 217 °C. For the compound `CCOC(=O)[C@H](CC(C)C)NC(=O)C[C@@H]1CN(CC(C)(C)CO)c2ccc(Cl)cc2[C@@H](c2cccc(OC)c2OC)O1`, the melting point was in the range of 148 to 149 °C.

For `O=C(O)COc1c(Br)cc(C(=O)c2ccc3ccccc3c2)cc1Br`, the melting point was 188 to 189 °C. As to `CC(C)CC(=O)Nc1c(C(=O)C2CCCCC2)[nH]c2cc(Cl)ccc12`, the melting point was 209 to 215 °C.

As to `O=C1NCc2c1cc1ccc3c(c1c2-c1ccc(F)cc1)OCC3`, the melting point was 302 to 305 °C. To `O=C(Nc1ccccc1)c1cc2ccccc2s1` belongs 188 °C. Next, `O=C1OCc2c1nc1ccc3c(c1c2-c1ccc2c(c1)OCO2)OCO3`: 272 to 274 °C; `CN(c1cccc2cc(-c3ncc(CCC(N)=O)s3)[nH]c12)S(=O)(=O)c1cccs1`: 246 to 247 °C. To `CNC(=O)ON=CC=NOC(C)=O` belongs 138 °C; to `CCOC(=O)c1cn(-c2ccc(F)cn2)c2c(F)c(F)c(F)cc2c1=O`, 203 to 205 °C.
